Data on two molecules can be found in patent US9034398B2, “Traditional Chinese drug comprising Danshen extracts and Sanqi extracts and use thereof” (TASLY Pharmaceutical Group Co., LTD., priority 2009, dated 2015).

Experiment [1] concerns rat myocardial I/R model. Briefly: FITC-labeled plasma albumin leakage from the venules of heart coronary vessels. It is filed as in vivo. The settings on record: 5 mg/kg BW/h intravenous drip, 60 min after reperfusion; for FITC-labeled albumin leakage from the venules of the coronary vessels (images): FIG. 3A; for inhibitory effect on FITC-labeled albumin leakage (ratio of fluorescence intensity outside to inside the venules): FIG. 3B. How it is done:
The rats were anesthetized by intramuscularly injecting 20 wt % urethane (1.25 g/kg) and fixed in the supine position. Neck skin was incised and anterior cervical muscles were separated to expose the trachea. Tracheal intubation was performed. Another end of the intubation was attached to a Small Animal Ventilator (ALC-V8, Shanghai Aoteshai Biology Science and Technology Limited Company, Shanghai, China) so as to carry out pressure breathing under the following conditions: a respiratory ratio of 1:1, a respiratory frequency of 75 times/min and a tidal volume of 12 mL/kg. The rectal temperature, measured with YSI REF 401 (Yellow Spring, Ohio, USA), was maintained at 37 37.5° C. by using a thermal blanket. The chest was sterilized and opened at the intercostal space between 2nd 4th ribs near the left and right sternal border to expose the heart. The 3⁄8 curved needle threaded with 3-0 suture was used to pass through the site at 1 2 mm below the juncture of the pulmonary artery cone and the left atrial appendage. The suture was ligated. A polyethylene tubule was placed between the silk suture and myocardial tissue, the silk suture was […] to cause ischemia. Ligature was released 30 min later to establish an I/R model. Danshensu+I/R group (DLA+I/R group): a Danshensu aqueous solution (in normal saline, 1.25 mg/ml) was administrated at a dosage of 5 mg/kg BW/h by intravenous drip 20 min before the experiment and continued until the end of the entire experiment. Notoginsenoside R1+I/R group (R1+I/R group): a Notoginsenoside R1 aqueous solution (in normal saline, 1.25 mg/ml) was administrated at a dosage of 5 mg/kg BW/h by intravenous drip 20 min before the experiment and continued until the end of the entire experiment. Danshensu:R1(4:1)+I/R group (DR(4:1)+I/R group): an aqueous solution of Danshensu and Notoginsenoside R1 at a weight ratio of 4:1, dissolved in normal saline (1.25 mg/ml, namely, in the solution, the concentration of Danshensu is 1 mg/ml and the concentration of Notoginsenoside R1 is 0.25 mg/ml), was administrated at a dosage of 5 mg/kg BW/h (namely, in the total dosage, the dosage of Danshensu is 4 mg/kg BW/h and the dosage of Notoginsenoside R1 is 1 mg/kg BW/h) by intravenous drip 20 min before the experiment and continued until the end of the entire experiment. […] Under an upright fluorescence microscope (USS-301, Leica, US), fluorescence image of each group was recorded with SIT camera by using a light at 455 nm as an exciting light and a mercury lamp (100 W) as an emission source. FITC fluorescence intensities inside the venules and the adjacent extravascular interstitial substance were measured with Image-Pro Plus 5.0 software, respectively. […]

In experiment [2] the test system is rat myocardial I/R model. Briefly: RBC velocity in the venules of heart coronary vessels after myocardial I/R. It is filed as in vivo. Particulars: for inhibitory effect on the decreased RBC velocity in the venules caused by I/R: from 30 min after reperfusion. How it is done:
The rats were anesthetized by intramuscularly injecting 20 wt % urethane (1.25 g/kg) and fixed in the supine position. Neck skin was incised and anterior cervical muscles were separated to expose the trachea. Tracheal intubation was performed. Another end of the intubation was attached to a Small Animal Ventilator (ALC-V8, Shanghai Aoteshai Biology Science and Technology Limited Company, Shanghai, China) so as to carry out pressure breathing under the following conditions: a respiratory ratio of 1:1, a respiratory frequency of 75 times/min and a tidal volume of 12 mL/kg. The rectal temperature, measured with YSI REF 401 (Yellow Spring, Ohio, USA), was maintained at 37 37.5° C. by using a thermal blanket. The chest was sterilized and opened at the intercostal space between 2nd 4th ribs near the left and right sternal border to expose the heart. The 3⁄8 curved needle threaded with 3-0 suture was used to pass through the site at 1 2 mm below the juncture of the pulmonary artery cone and the left atrial appendage. The suture was ligated. A polyethylene tubule was placed between the silk suture and myocardial tissue, the silk suture was […] to cause ischemia. Ligature was released 30 min later to establish an I/R model. Danshensu+I/R group (DLA+I/R group): a Danshensu aqueous solution (in normal saline, 1.25 mg/ml) was administrated at a dosage of 5 mg/kg BW/h by intravenous drip 20 min before the experiment and continued until the end of the entire experiment. Notoginsenoside R1+I/R group (R1+I/R group): a Notoginsenoside R1 aqueous solution (in normal saline, 1.25 mg/ml) was administrated at a dosage of 5 mg/kg BW/h by intravenous drip 20 min before the experiment and continued until the end of the entire experiment. […] Heart coronary vessel microcirculation had been recorded by a CD video recorder ([…], US). […] The diameter of the venules and RBC velocity under a same visual field were recorded before ischemia, 30 min after ischemia, 30 min after reperfusion and 60 min after reperfusion. Recordings were replayed at 25 frames·s^-1, diameters of the arterioles and the venules as well as RBC velocities were measured with Image-Pro Plus 5.0 software. RBC velocities in the rat's heart arterioles and venules were expressed as “mm/s”, and the diameters of the rat's heart arterioles and venules were expressed as “μm”.

Experiment [3] deals with rat's mesenteric venule walls. The settings on record: prior researches; rat mesentery, I/R; cited from earlier work.
The subject of experiment [4] is rat's liver. The settings on record: previous researches, cited from earlier work.
Setting [5] is: 5 mg/kg BW/h intravenous drip, FIG. 2.

Regarding `O=C(O)C(O)Cc1ccc(O)c(O)c1` (stereo not shown) [Danshensu, (3,4-dihydroxyphenyl)lactic acid], in experiment [1], the “FITC-labeled albumin leakage from the venules of the coronary vessels (images)” value is recorded as “can also be observed” and the “inhibitory effect on FITC-labeled albumin leakage (ratio of fluorescence intensity outside to inside the venules)” value is reported as “Significant inhibitory effect on FITC-labeled albumin leakage has not been observed”. For the same molecule, the “inhibitory effect on the decreased RBC velocity in the venules caused by I/R” value in experiment [2] (setting [5]) is “significantly inhibitory effect”. In experiment [2] (5 mg/kg BW/h intravenous drip, until 60 min after reperfusion, FIG. 2), the “course of the inhibitory effect on decreased RBC velocity” value is listed as “does not further improved”. Further, the “amelioration of RBC velocity in the venules of the heart coronary vessels caused by I/R (summary)” value in experiment [2] (rats, summary statement of the description) is on record as “transiently ameliorate”. Moreover, in experiment [3], the “adhesion between leucocytes and venule walls” value is “potential for inhibiting”; the “expression of leucocytes adhesion molecules CD11b/CD18” value is “potential for inhibiting”; the “leakage of plasma albumin” value is reported as “potential for inhibiting”.
As for `CC(C)=CCC[C@](C)(O[C@@H]1O[C@H](CO)[C@@H](O)[C@H](O)[C@H]1O)[C@H]1CC[C@]2(C)[C@@H]1[C@H](O)C[C@@H]1[C@@]3(C)CC[C@H](O)C(C)(C)[C@@H]3[C@@H](O[C@@H]3O[C@H](CO)[C@@H](O)[C@H](O)[C@H]3O[C@@H]3OC[C@@H](O)[C@H](O)[C@H]3O)C[C@]12C` [Notoginsenoside R1], in experiment [1], the “FITC-labeled albumin leakage from the venules of the coronary vessels (images)” value is recorded as “can also be observed” and the “inhibitory effect on FITC-labeled albumin leakage (ratio of fluorescence intensity outside to inside the venules)” value was “Significant inhibitory effect on FITC-labeled albumin leakage has not been observed”. Also, the “inhibitory effect on the decreased RBC velocity in the venules caused by I/R” value in experiment [2] (setting [5]) is “does not display a significantly inhibitory effect”. Also, the “leukocytes adhered to rat's liver caused by I/R” value in experiment [4] was “can reduce”. Also, in experiment [4] (rat, I/R), the “microcirculation disorder of the liver” value is on record as “can ameliorate”.
